In patent US9713702B2, “Methods of electric field induced delivery of compounds, compositions used in delivery, and systems of delivery” (The Board of Trustee of the Leland Stanford Junior …, priority 2011, dated 2017):

Tests used:
[1] = Release study in solution: electric field triggered release from the conductive hydrogel on a platinum electrode in PBS; type: physicochemical
Protocol: The triggered release capabilities of this system were firstly investigated in solution. In phosphate buffered saline (PBS, pH 7.2), a voltage of −0.5 V was applied between two platinum electrodes separated by a distance of 1 cm. The anode was coated with 100 mg of the hydrogel containing 0.25 wt % fluorescein-encapsulated PPy nanoparticles with a thickness around 0.1 cm. The resistivity of the swelled hydrogel and the PBS buffer was measured to be 5400 Ω·cm and 64 Ω·cm, respectively. Then, the electric field across the hydrogel was calculated to be approximately −4.5 V/cm. The electrical stimulus was applied for 10 seconds, which was repeated every five minutes, followed by measurements of the concentration of free fluorescein in the solution. […] For each stimulus, ˜20 ng of fluorescein was released. The voltage between the two electrodes was then set at −1.5 V (corresponding to an electric field across the hydrogel of −13.6 V/cm). […] The higher amount observed during the first stimulus may result from higher drug loading within the nanoparticles. Our interest in the practicability of this triggered release led us to perform a long-term release study over seven days. With the voltage between the two electrodes at −1.0 V (corresponding to an electric field across the hydrogel of −9.0 V/cm), the pulsed electric stimulus was applied to the conductive hydrogels for 20 s, once every 24 hr, followed by concentration measurements of free fluorescein in solution. […] In the case of daunorubicin, an electric field across the hydrogel of 4.5 V/cm (the set voltage was 0.5 V) was applied for 10 seconds every 5 minutes.
By applying voltage until no obvious drug release could be detected, the loading percentage of fluorescein and daunorubicin in PPy nanoparticles was calculated to be around 3.6 wt % and 3.2 wt %. […] Only with an electric stimulus can drugs be released on command. This represents an important advantage of our delivery system over conventional sustained release of drugs from hydrogel.
The platinum anode was firstly coated with the PLGA-PEG-PLGA polymer solution (100 mg of polymer) containing 0.25 wt % fluorescein (or daunorubicin)-encapsulated PPy nanoparticles, followed by solidification of the gel at room temperature. The PPy nanoparticles in the solidified gel was calculated to be 1 wt %. The coated platinum anode was then immersed in phosphate buffered saline (PBS, pH 7.2) together with a counter platinum electrode with a separated distance of 1 cm. For the release study in solution, specific voltages were applied between the two electrodes, followed by measurements of the concentration of released molecules by fluorescent assays.

[2] = Protocol: D-luciferin-encapsulated polypyrrole nanoparticles were synthesized the by an emulsion polymerization which could control the sizes of the nanoparticles. Luciferin served as a model molecule was incorporated in the polymer nanoparticle. […] At 4° C., 0.05 wt % of polypyrrole nanoparticles were dispersed in the water solution containing 15 wt % of poly[(D,L-lactic acid)-co-(glycolic acid)]-b-poly(ethylene oxide)-b-poly[(D,L-lactic acid)-co-(glycolic acid)] (PLGA-PEG-PLGA).
An electrical stimulus of −2.0 V/cm was applied for 10 seconds on the platinum electrodes in every 5 minutes, followed by measuring the concentration of luciferin in the solution.

| SMILES | loading percentage in PPy nanoparticles ([1]; calculated by applying voltage until no obvious drug release could be detected) [wt %] | amount of daunorubicin released upon each stimulus ([1]; daunorubicin-encapsulated PPy nanoparticles in hydrogel, PBS pH 7.2, 0.5 V (4.5 V/cm across hydrogel), 10 seconds every 5 minutes) [ng] | release from PPy nanoparticles in hydrogel without applying voltage ([1]; drug encapsulated in PPy nanoparticles in hydrogel, no electric field (control)) | sustained release from hydrogel without encapsulation in PPy nanoparticles ([1]; drug in PLGA-PEG-PLGA hydrogel, not encapsulated in PPy nanoparticles, no voltage) | release of luciferin upon electric stimulus ([2]; D-luciferin-encapsulated polypyrrole nanoparticles in PLGA-PEG-PLGA hydrogel, -2.0 V/cm, 10 seconds every 5 minutes) | release of luciferin without applying voltage ([2]; D-luciferin-encapsulated polypyrrole nanoparticles in hydrogel, control without voltage) |
| --- | --- | --- | --- | --- | --- | --- |
| COc1cccc2c1C(=O)c1c(O)c3c(c(O)c1C2=O)C[C@@](O)(C(C)=O)C[C@@H]3O[C@H]1C[C@H](N)[C@H](O)[C@H](C)O1 [daunorubicin] | ~3.2 | ~25 | no obvious release | most of the drugs in hydrogel were released in 4 days | – | – |
| O=C(O)[C@H]1CSC(c2nc3ccc(O)cc3s2)=N1 [luciferin, D-luciferin] | – | – | – | – | released by applying the electric stimulus | no release |
